Test results taken from patent US6737383B1, “Herbicidal oxadiazolidines” (priority 1999, dated 2004).

Tests used:
sugar beet = experiment: Test B pre/postemergence sugar beet; assay type: in vivo, Beta vulgaris
Method in brief: (§1)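 Herbicidal effect was estimated by eye on a ten-point control scale after plants spent twelve to sixteen days in a greenhouse following soil or foliar treatment. Foliar sprays targeted plants at one to four leaves; all doses were formulated in a non-phytotoxic solvent with surfactant.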

crabgrass = experiment: Test B pre/postemergence crabgrass; assay type: in vivo, Digitaria sanguinalis
Method in brief: as §1

corn = experiment: Test B pre/postemergence corn; assay type: in vivo, Zea mays
Method in brief: as §1

morningglory = experiment: Test B pre/postemergence morningglory; assay type: in vivo, Ipomoea hederacea
Method in brief: as §1

pigweed = experiment: Test B pre/postemergence pigweed; assay type: in vivo, Amaranthus retroflexus
Method in brief: as §1

bedstraw = experiment: Test B pre/postemergence bedstraw; assay type: in vivo, Galium aparine
Method in brief: as §1

rape = experiment: Test B pre/postemergence rape; assay type: in vivo, Brassica napus
Method in brief: as §1

surinam grass = experiment: Test B pre/postemergence surinam grass; assay type: in vivo, Brachiaria decumbens
Method in brief: as §1

blackgrass = experiment: Test B pre/postemergence blackgrass; assay type: in vivo, Alopecurus myosuroides
Method in brief: as §1

velvetleaf = experiment: Test B pre/postemergence velvetleaf; assay type: in vivo, Abutilon theophrasti
Method in brief: as §1

smallflower flatsedge = experiment: Test B flood test smallflower flatsedge; assay type: in vivo, Cyperus difformis; details: Pre-emergence
Method in brief: (§2)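 Read-out is a visual response score from 0 (no effect) to 10 (complete control), assigned by comparison with untreated controls. Treatment was applied at the 2-leaf stage, and plants stayed in the greenhouse for twelve to sixteen days before scoring.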

cocklebur = experiment: Test B pre/postemergence cocklebur; assay type: in vivo, Xanthium strumarium
Method in brief: as §1

wild oat = experiment: Test B pre/postemergence wild oat; assay type: in vivo, Avena fatua
Method in brief: as §1

purple nutsedge = experiment: Test B pre/postemergence purple nutsedge; assay type: in vivo, Cyperus rotundus
Method in brief: as §1

duck salad = experiment: Test B flood test duck salad; assay type: in vivo, Heteranthera limosa; details: Pre-emergence
Method in brief: as §2

wheat = experiment: Test B pre/postemergence wheat; assay type: in vivo, Triticum aestivum
Method in brief: as §1

[1] = Postemergence, Rate 1000 g/ha, scale 0 to 10 (0 no effect, 10 complete control)
[2] = Preemergence, Rate 250 g/ha, scale of 0 to 10 where 0 is no effect and 10 is complete control
[3] = Preemergence, Rate 500 g/ha, scale of 0 to 10 where 0 is no effect and 10 is complete control
[4] = Rate 125 g/ha, Postemergence, scale of 0 to 10 where 0 is no effect and 10 is complete control
[5] = Rate 250 g/ha, Postemergence, scale of 0 to 10 where 0 is no effect and 10 is complete control
[6] = Rate 1000 g/ha, Preemergence, scale 0 to 10 (0 no effect, 10 complete control)
[7] = Rate 500 g/ha, Postemergence, scale 0 to 10, 0 no effect, 10 complete control
[8] = Rate 1000 g/ha, scale 0 to 10 (0 no effect, 10 complete control)
[9] = Rate 125 g/ha, flood test species, scale 0 to 10 where 0 is no effect and 10 is complete control
[10] = Rate 250 g/ha, flood-test species, scale 0 to 10, 0 is no effect, 10 is complete control
[11] = Rate 500 g/ha, flood test species, scale 0 to 10 (0 no effect, 10 complete control)

CCOC(=O)C(C)N(C(=O)n1oc(=O)n(C(C)C)c1=O)c1ccc(F)cc1 (centres unmarked) [Compound 302]
7: Crabgrass plant response rating (crabgrass; [3]) | Plant response rating, Crabgrass (crabgrass; [6]) | Plant response rating, B. signalgrass (surinam grass; [6])
4: Plant response rating, Sugarbeets (sugar beet; [6]) | Plant response rating, Velvetleaf (velvetleaf; [6])
8: Plant response rating, Rape (rape; [6])
0: Sugarbeets plant response rating (0 to 10 scale) (sugar beet; Preemergence, Rate 125 g/ha) | Sugarbeets plant response rating (sugar beet; [4]) | Crabgrass plant response rating (0 to 10 scale) (crabgrass; Preemergence, Rate 125 g/ha) | Crabgrass plant response rating (crabgrass; [4]) | Plant response rating, Crabgrass (crabgrass; [5]) | Corn plant response rating (corn; [1]) | Corn plant response rating (0 to 10 scale) (corn; Preemergence, Rate 125 g/ha) | Corn plant response rating (corn; [2]) | Corn plant response rating (corn; [3]) | Corn plant response rating (corn; [4]) | Plant response rating, Corn (corn; [5]) | Corn plant response rating (corn; [7]) | Plant response rating, Corn (corn; [6]) | Morningglory plant response rating (0 to 10 scale) (morningglory; Preemergence, Rate 125 g/ha) | Morningglory plant response rating (morningglory; [2]) | Morningglory plant response rating (morningglory; [3]) | Plant response rating, Morningglory (morningglory; [6]) | Redroot pigweed plant response rating (0 to 10 scale) (pigweed; Preemergence, Rate 125 g/ha) | Redroot pigweed plant response rating (pigweed; [2]) | Redroot pigweed plant response rating (pigweed; [3]) | Bedstraw plant response rating (bedstraw; [1]) | Bedstraw plant response rating (0 to 10 scale) (bedstraw; Preemergence, Rate 125 g/ha) | Bedstraw plant response rating (bedstraw; [2]) | Bedstraw plant response rating (bedstraw; [3]) | Bedstraw plant response rating (bedstraw; [4]) | Plant response rating, Bedstraw (bedstraw; [5]) | Bedstraw plant response rating (bedstraw; [7]) | Plant response rating, Bedstraw (bedstraw; [6]) | Rape plant response rating (rape; [1]) | Rape plant response rating (0 to 10 scale) (rape; Preemergence, Rate 125 g/ha) | Rape plant response rating (rape; [2]) | Rape plant response rating (rape; [4]) | Plant response rating, Rape (rape; [5]) | B. signalgrass plant response rating (surinam grass; [1]) | B. signalgrass plant response rating (0 to 10 scale, 0 is no effect, 10 is complete control) (surinam grass; Preemergence, Rate 125 g/ha) | B. signalgrass plant response rating (surinam grass; [2]) | B. signalgrass plant response rating (surinam grass; [4]) | Plant response rating, B. signalgrass (surinam grass; [5]) | B. signalgrass plant response rating (surinam grass; [7]) | Blackgrass plant response rating (0 to 10 scale) (blackgrass; Preemergence, Rate 125 g/ha) | Blackgrass plant response rating (blackgrass; [4]) | Plant response rating, Blackgrass (blackgrass; [5]) | Velvetleaf plant response rating (velvetleaf; [1]) | Velvetleaf plant response rating (0 to 10 scale) (velvetleaf; Preemergence, Rate 125 g/ha) | Velvetleaf plant response rating (velvetleaf; [2]) | Velvetleaf plant response rating (velvetleaf; [3]) | Velvetleaf plant response rating (velvetleaf; [4]) | Plant response rating, Velvetleaf (velvetleaf; [5]) | S. Flatsedge plant response rating (smallflower flatsedge; [8]) | S. Flatsedge plant response rating (smallflower flatsedge; [9]) | S. Flatsedge plant response rating (smallflower flatsedge; [10]) | S. Flatsedge plant response rating (smallflower flatsedge; [11]) | Cocklebur plant response rating (cocklebur; [1]) | Cocklebur plant response rating (0 to 10 scale) (cocklebur; Preemergence, Rate 125 g/ha) | Cocklebur plant response rating (cocklebur; [2]) | Cocklebur plant response rating (cocklebur; [3]) | Cocklebur plant response rating (cocklebur; [4]) | Plant response rating, Cocklebur (cocklebur; [5]) | Cocklebur plant response rating (cocklebur; [7]) | Plant response rating, Cocklebur (cocklebur; [6]) | Wild oats plant response rating (wild oat; [1]) | Wild oats plant response rating (0 to 10 scale) (wild oat; Preemergence, Rate 125 g/ha) | Wild oats plant response rating (wild oat; [4]) | Plant response rating, Wild oats (wild oat; [5]) | Nutsedge plant response rating (purple nutsedge; [1]) | Nutsedge plant response rating (0 to 10 scale) (purple nutsedge; Preemergence, Rate 125 g/ha) | Nutsedge plant response rating (purple nutsedge; [2]) | Nutsedge plant response rating (purple nutsedge; [3]) | Nutsedge plant response rating (purple nutsedge; [4]) | Plant response rating, Nutsedge (purple nutsedge; [5]) | Plant response rating, Nutsedge (purple nutsedge; [6]) | Ducksalad plant response rating (duck salad; [8]) | Ducksalad plant response rating (duck salad; [9]) | Ducksalad plant response rating (duck salad; [10]) | Ducksalad plant response rating (duck salad; [11]) | Wheat plant response rating (0 to 10 scale) (wheat; Preemergence, Rate 125 g/ha) | Wheat plant response rating (wheat; [2]) | Wheat plant response rating (wheat; [3]) | Wheat plant response rating (wheat; [4]) | Plant response rating, Wheat (wheat; [5]) | Plant response rating, Wheat (wheat; [6])
1: Plant response rating, Sugarbeets (sugar beet; [5]) | Crabgrass plant response rating (crabgrass; [1]) | Morningglory plant response rating (morningglory; [4]) | Redroot pigweed plant response rating (pigweed; [4]) | Wheat plant response rating (wheat; [1])
5: Blackgrass plant response rating (blackgrass; [3]) | Wild oats plant response rating (wild oat; [3])
6: Blackgrass plant response rating (blackgrass; [1]) | Plant response rating, Blackgrass (blackgrass; [6]) | Plant response rating, Wild oats (wild oat; [6])
2: Sugarbeets plant response rating (sugar beet; [1]) | Sugarbeets plant response rating (sugar beet; [2]) | Sugarbeets plant response rating (sugar beet; [3]) | Crabgrass plant response rating (crabgrass; [2]) | Morningglory plant response rating (morningglory; [1]) | Plant response rating, Morningglory (morningglory; [5]) | Plant response rating, Redroot pigweed (pigweed; [5]) | Blackgrass plant response rating (blackgrass; [2]) | Blackgrass plant response rating (blackgrass; [7]) | Wild oats plant response rating (wild oat; [2])
3: Redroot pigweed plant response rating (pigweed; [1]) | Plant response rating, Redroot pigweed (pigweed; [6]) | B. signalgrass plant response rating (surinam grass; [3])
